Read-outs that look alike come from different tables or passages of the source.
Tests used:
[1] = system: PC3-PIP tumor-bearing balb/c-nu mice; experiment: Biodistribution in PC3-PIP tumor model; type: in vivo; details: mean ± SD (n=5)
Protocol: All animal experiments were performed with the approval of the institutional animal ethics committee. Male NOD/SCID mice (5 − 6 weeks old) implanted with LNCaP cells were used for imaging and biodistribution experiments as previously described. The mice were imaged or used in biodistribution studies once the tumor grew to 8 − 10 mm in diameter over a period of 4 − 5 weeks. At the same time, male balb/c-nu mice (5 − 6 weeks old) implanted with PC3-PIP cells were used as an alternative tumor model for imaging and biodistribution experiments.
To conduct biodistribution studies, male mice bearing LNCaP or PC3-PIP tumors with an average body weight of approximately 20 ± 5 g and a tumor diameter of 8 − 10 mm were administered a bolus injection of 2.5 MBq of the corresponding radioligand via the tail vein. After 30, 60, and 120 min, the mice were anesthetized with isoflurane and subsequently euthanized by CO2 asphyxiation. Blood was drawn, and the organs of interest were promptly harvested, blotted dry, and weighed. The radioactivity of the collected mouse organs was measured and expressed as the percentage of the injected dose per gram of tissue (%ID/g). Each group consisted of at least five mice.

[2] = biological target: T1, PSMA (Homo sapiens, UniProt Q04609); experiment: Competitive cell binding assay against [68Ga]Ga-PSMA-11 on LNCaP cells; details: competition with [68Ga]Ga-PSMA-11, natGa-labeled standards, 1 h 37 °C
T1 construct: host or cells: LNCaP
Protocol: LNCaP prostate cancer cell line obtained from the American Type Culture Collection (ATCC, Manassas, VA) was used for cell affinity studies. The cells were grown in a meilunbio RPMI 1640 medium (ATCC modified) supplemented with 10% fetal bovine serum and 1% streptomycin/penicillin (Thermo Fisher Scientific, USA) at 37 °C in a humidified 5% CO2 atmosphere. Two days (48 ± 2 h) prior to in vitro experiments, the cells were harvested using trypsin-ethylenediaminetetraacetic acid (EDTA; 0.25% trypsin, 0.02% EDTA) in PBS and centrifuged. The supernatant was disposed, and the cell pellet was resuspended in a culture medium, and LNCaP cells (150,000 cells/well) were counted with a hemocytometer and seeded in poly-L-lysine-coated 24-well plates used in cell binding studies. The cells were then allowed to grow at 37 °C for 48 h. PC3-PIP cells provided by Professor Xiaoyuan Chen (Singapore) require additional Puromycin (2 µg/ml) in addition to the appealed culture conditions. Detailed information regarding uptake and internalization experiments can be found in the previous report.
In order to determine the binding affinity, a competitive cell binding assay was performed. […] The total radioactivity in each well was measured with a gamma counter. […]

[3] = Radiochemical stability in human serum at 37 °C; type: in vitro ADME; details: 2 h
Protocol: (§1) The radiochemical purity of samples incubated in PBS at each time point was determined using RP-HPLC. For the samples in human serum, a pretreatment step was applied. Briefly, the human serum samples underwent precipitation with acetonitrile, and the radiochemical purity of each supernatant aliquot was determined using RP-HPLC after centrifugation for 5 min at 10,000 rpm. The experiments were performed in triplicate.

[4] = Radiochemical stability in PBS at 37 °C; type: physicochemical; details: 2 h
Protocol: as §1

[5] = system: LNCaP cells; experiment: Uptake and internalization in LNCaP cells; type: cell-based, human; details: 120 min incubation, normalized to 10^6 cells
Protocol: LNCaP prostate cancer cell line obtained from the American Type Culture Collection (ATCC, Manassas, VA) was used for cell affinity studies. […] The supernatant was disposed, and the cell pellet was resuspended in a culture medium, and LNCaP cells (150,000 cells/well) were counted with a hemocytometer and seeded in poly-L-lysine-coated 24-well plates used in cell binding studies. The cells were then allowed to grow at 37 °C for 48 h. PC3-PIP cells provided by Professor Xiaoyuan Chen (Singapore) require additional Puromycin (2 µg/ml) in addition to the appealed culture conditions.

[6] = system: LNCaP tumor-bearing NOD/SCID mice; details: mouse, in vivo
[7] = system: PC3-PIP tumors; experiment: Micro-PET/CT blocking experiment with 2-PMPA, PC3-PIP tumor model; type: in vivo, mice; details: identical methodology
Protocol: (§2) To perform imaging studies, the male mice bearing LNCaP tumors were injected with the corresponding radioligand (~ 2.5 MBq; 100 μL) via their tail veins. The micro-PET/CT scans (Inveon PET, Siemens) were conducted at 10, 30, 60, and 120 min after injection. The mice were anesthetized and maintained under 2% isoflurane in oxygen at a flow rate of 2 L/min during the 2-h imaging study. First, a 10 min static PET imaging acquisition was carried out, followed by a 10 min CT scan for localization and attenuation correction. Data analysis was performed using Inveon Research Workplace software. For PC3-PIP tumor model, the imaging studies were performed with micro-PET/SPECT/CT (Inliview-3000B, Novel Medical). Data analysis was performed using Nmsoft-Al ws v1.7–1 software.
(§3) To evaluate the specificity of radioligands, blocking experiments were performed. In brief, 40 nmol of the PSMA inhibitor 2-PMPA was administered, followed by the injection of approximately 2.6 MBq of radioligands after 30 min. Then a static scan of micro-PET/CT was performed 60 min later.

[8] = system: LNCaP tumors; experiment: Micro-PET/CT blocking experiment with 2-PMPA, LNCaP tumor model; type: in vivo, mice; details: 40 nmol 2-PMPA 30 min before radioligand, static scan 60 min later
Protocol: as §2, §3

T1 sequence (Q04609 whole entry): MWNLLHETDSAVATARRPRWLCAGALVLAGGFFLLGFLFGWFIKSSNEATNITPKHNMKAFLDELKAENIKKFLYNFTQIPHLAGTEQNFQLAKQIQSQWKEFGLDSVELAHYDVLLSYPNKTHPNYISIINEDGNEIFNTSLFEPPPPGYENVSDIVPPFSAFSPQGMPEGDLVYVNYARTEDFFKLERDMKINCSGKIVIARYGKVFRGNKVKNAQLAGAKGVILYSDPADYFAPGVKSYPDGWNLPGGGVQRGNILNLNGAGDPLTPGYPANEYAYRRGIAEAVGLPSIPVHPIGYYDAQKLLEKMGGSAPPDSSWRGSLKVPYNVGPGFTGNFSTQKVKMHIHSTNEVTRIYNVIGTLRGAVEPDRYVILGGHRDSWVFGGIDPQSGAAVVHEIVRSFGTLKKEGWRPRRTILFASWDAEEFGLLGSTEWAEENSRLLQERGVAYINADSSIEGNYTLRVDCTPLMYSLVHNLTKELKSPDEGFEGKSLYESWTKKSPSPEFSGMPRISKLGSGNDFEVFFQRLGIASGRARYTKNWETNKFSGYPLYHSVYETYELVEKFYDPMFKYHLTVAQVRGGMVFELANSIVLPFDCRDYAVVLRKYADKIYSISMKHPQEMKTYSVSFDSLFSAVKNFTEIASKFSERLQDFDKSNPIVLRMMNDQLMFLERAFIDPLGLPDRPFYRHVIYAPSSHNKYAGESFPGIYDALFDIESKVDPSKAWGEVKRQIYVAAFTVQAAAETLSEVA

SMILES: O=C(O)CC[C@H](NC(=O)N[C@@H](CCCCN(CC(=O)NCCOCCOCCOCCOCCNC(=O)CN1CCN(CC(=O)O)CCN(CC(=O)O)CCN(CC(=O)O)CC1)C(=O)C1c2ccccc2-c2ccccc21)C(=O)O)C(=O)O.[68Ga] [[^68Ga]Ga-PP4-WD]
- Blood uptake ([1]; 30 min p.i.): 1.07±0.47 %ID/g
- Bone uptake ([1]; 30 min p.i.): 0.41±0.17 %ID/g
- Brain uptake ([1]; 30 min p.i.): 0.05±0.04 %ID/g
- Heart uptake ([1]; 30 min p.i.): 0.39±0.26 %ID/g
- Kidney uptake ([1]; 30 min p.i.): 17.85±4.66 %ID/g
- Liver uptake ([1]; 30 min p.i.): 0.36±0.14 %ID/g
- Lung uptake ([1]; 30 min p.i.): 0.99±0.22 %ID/g
- Muscle uptake ([1]; 30 min p.i.): 0.36±0.25 %ID/g
- Salivary uptake ([1]; 30 min p.i.): 0.46±0.16 %ID/g
- Small int (small intestine) uptake ([1]; 30 min p.i.): 0.33±0.15 %ID/g
- Spleen uptake ([1]; 30 min p.i.): 1.06±0.89 %ID/g
- Stomach uptake ([1]; 30 min p.i.): 0.44±0.18 %ID/g
- Tumor uptake ([1]; 30 min p.i.): 26.49±3.34 %ID/g
- Blood uptake ([1]; 60 min p.i.): 0.19±0.05 %ID/g
- Bone uptake ([1]; 60 min p.i.): 0.11±0.02 %ID/g
- Brain uptake ([1]; 60 min p.i.): 0.02±0.01 %ID/g
- Heart uptake ([1]; 60 min p.i.): 0.06±0.01 %ID/g
- Kidney uptake ([1]; 60 min p.i.): 2.96±1.04 %ID/g
- Liver uptake ([1]; 60 min p.i.): 0.16±0.03 %ID/g
- Lung uptake ([1]; 60 min p.i.): 0.23±0.05 %ID/g
- Muscle uptake ([1]; 60 min p.i.): 0.04±0.02 %ID/g
- Salivary uptake ([1]; 60 min p.i.): 0.17±0.09 %ID/g
- Small int (small intestine) uptake ([1]; 60 min p.i.): 0.1±0.04 %ID/g
- Spleen uptake ([1]; 60 min p.i.): 0.22±0.05 %ID/g
- Stomach uptake ([1]; 60 min p.i.): 0.09±0.02 %ID/g
- Tumor uptake ([1]; 60 min p.i.): 27.43 ± 1.81 %ID/g
- Blood uptake ([1]; 120 min p.i.): 0.17±0.04 %ID/g
- Bone uptake ([1]; 120 min p.i.): 0.08±0.03 %ID/g
- Brain uptake ([1]; 120 min p.i.): 0.01±0.01 %ID/g
- Heart uptake ([1]; 120 min p.i.): 0.06±0.03 %ID/g
- Kidney uptake ([1]; 120 min p.i.): 1.21±0.30 %ID/g
- Liver uptake ([1]; 120 min p.i.): 0.14±0.05 %ID/g
- Lung uptake ([1]; 120 min p.i.): 0.13±0.07 %ID/g
- Muscle uptake ([1]; 120 min p.i.): 0.04±0.03 %ID/g
- Salivary uptake ([1]; 120 min p.i.): 0.08±0.03 %ID/g
- Small int (small intestine) uptake ([1]; 120 min p.i.): 0.07±0.03 %ID/g
- Spleen uptake ([1]; 120 min p.i.): 0.13±0.10 %ID/g
- Stomach uptake ([1]; 120 min p.i.): 0.06±0.03 %ID/g
- Tumor uptake ([1]; 120 min p.i.): 19.42±4.00 %ID/g
- IC50 [2]: 8.06 ± 0.91 nM
- Radiochemical purity after incubation in human serum [3]: 96.83 ± 0.87%
- Radiochemical purity after incubation in PBS [4]: 97%
- Internalization in LNCaP cells [5]: 9.36 ± 1.70%
- Uptake in LNCaP cells [5]: 26.30 ± 2.06%
- Renal uptake reduced by a factor compared to [68Ga]Ga-Flu-1 [6]: 40
- Renal uptake, fold less compared to [68Ga]Ga-Flu-1 [6]: tenfold
- Bone uptake ([6]; 0.5 h): 0.36±0.09 %ID/g
- Tumor uptake ([6]; 0.5 h): 33.45 ± 3.40 %ID/g
- Bone uptake ([6]; 1 h): 0.39±0.22 %ID/g
- Tumor uptake ([6]; 1 h): 39.28 ± 3.25 %ID/g
- Bone uptake ([6]; 2 h): 0.26±0.06 %ID/g
- Tumor uptake ([6]; 2 h): 25.75 ± 2.43 %ID/g
- Outcome of blocking imaging with 2-PMPA [7]: in concordance with those observed in the LNCaP tumor model
- Radioactivity upon blocking with 2-PMPA [8]: substantially reduced radioactivity

Reference: paper PMC10850047, “Exploring the impact of PEGylation on pharmacokinetics: a size-dependent effect of polyethylene glycol on prostate-specific membrane antigen inhibitors” (EJNMMI Research, 2024)
